Assay results taken from publication PMC10620989, “Going beyond Binary: Rapid Identification of Protein–Protein Interaction Modulators Using a Multifragment Kinetic Target-Guided Synthesis Approach” (Journal of Medicinal Chemistry, 2023).
Where two headings read alike, the source gives them in different places.

Legend:
[1] = target: T1, Mcl-1 (Mus musculus, UniProt P97287); assay: Multifragment KTGS screen against Mcl-1 (5 TA x 38 SZ per well), LC-MS/MS; settings: for KTGS hit call against Mcl-1: multifragment incubation, 10 µM Mcl-1, LC-MS/MS traces with vs without protein; for Amplification coefficient 5TA x 38SZ: multifragment KTGS, 190 combinations per well, 10 μM Mcl-1, 20 μM each fragment, pH 7.4, 37 °C, 10 h, peak area with protein / without protein
T1 sequence (P97287 whole entry, the tested form may be a part): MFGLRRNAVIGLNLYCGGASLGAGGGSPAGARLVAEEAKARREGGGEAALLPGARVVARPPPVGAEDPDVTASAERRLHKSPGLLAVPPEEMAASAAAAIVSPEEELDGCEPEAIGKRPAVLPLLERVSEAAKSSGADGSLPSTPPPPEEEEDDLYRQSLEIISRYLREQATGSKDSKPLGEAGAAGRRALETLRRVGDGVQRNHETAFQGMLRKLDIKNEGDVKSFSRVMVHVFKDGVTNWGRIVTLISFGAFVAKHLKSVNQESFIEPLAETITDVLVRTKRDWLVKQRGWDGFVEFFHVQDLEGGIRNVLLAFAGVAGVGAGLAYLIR

[2] = target: GST-tagged mouse Mcl-1-(152–309) (Mus musculus, UniProt P97287); assay: Fluorescence polarization competitive binding assay, GST-Mcl-1 / FITC-Bim-BH3; settings: for inhibition at 100 µM: read-out: inhibition in the fluorescence polarization assay, fragments tested individually; for inhibition at 50 µM: compound at 50 µM
GST-tagged mouse Mcl-1-(152–309), sequence (P97287 152-309): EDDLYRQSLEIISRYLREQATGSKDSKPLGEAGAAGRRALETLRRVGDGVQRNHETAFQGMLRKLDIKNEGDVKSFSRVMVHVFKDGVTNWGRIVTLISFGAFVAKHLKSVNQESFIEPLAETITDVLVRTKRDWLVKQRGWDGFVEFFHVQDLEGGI

[3] = target: T1, Mcl-1; assay: Binary KTGS incubation (1 TA x 1 SZ) with Mcl-1, LC-MS/MS; settings: binary incubation mixtures with and without Mcl-1
[4] = FP, GST-Mcl-1 and fluorescein-labeled Bim BH3 peptide, read-out: IC50 on Mcl-1

Compound | KTGS hit call against Mcl-1 [1] | inhibition at 100 µM [2] [%] | inhibition at 50 µM ([2]; FP) [%] | Amplification coefficient 5TA x 38SZ [1] | Amplification coefficient 1TA x 1SZ [3] | IC50 [2, 4] [µM] | IC50 ([2]; IC50 on Mcl-1) [µM]
CC(=O)Nc1ccc(S(=O)(=O)NC(=O)Cn2c3ccccc3c3ccccc32)cc1 [SZ3TA15] | non-hit | – | – | – | – | – | –
[N-]=[N+]=NS(=O)(=O)c1ccc(NCCSc2ccccc2)c([N+](=O)[O-])c1 [SZ4] | – | 23 | – | – | – | – | –
COc1cc2c(cc1OC)C(c1ccccc1)N(Cc1ccc(S(=O)(=O)NC(=O)CCCN3C(=O)C(c4ccc(F)cc4F)=C(c4ccc(F)cc4F)C3=O)cc1)CC2 (stereo not shown) [SZ8TA20, O=C(NS(C1=CC=C(CN2CCC(C=C(OC)C(OC)=C3)=C3C2C4=CC=CC=C4)C=C1)(=O)=O)CCCN5C(C(C6=C(F)C=C(F)C=C6)=C(C7=CC=C(F)C=C7F)C5=O)=O] | – | – | 19.2 | 20 | 10 | – | –
[N-]=[N+]=NS(=O)(=O)c1ccc(CN(CCSc2ccccc2)Cc2ccc(S(=O)(=O)NC(=O)c3ccc(CCc4ccccn4)cc3)cc2)cc1 [SZ9TA17, O=C(NS(C1=CC=C(CN(CC2=CC=C(S(=O)(N=[N+]=[N-])=O)C=C2)CCSC3=CC=CC=C3)C=C1)(=O)=O)C4=CC=C(CCC5=NC=CC=C5)C=C4] | – | – | > 99 | 22 | 18 | 20.4 | –
[N-]=[N+]=NS(=O)(=O)c1ccc(CN(CCSc2ccccc2)Cc2ccc(S(=O)(=O)NC(=O)c3ccc(-c4ccccn4)cc3)cc2)cc1 [SZ9TA25, O=C(NS(C1=CC=C(CN(CCSC2=CC=CC=C2)CC3=CC=C(S(=O)(N=[N+]=[N-])=O)C=C3)C=C1)(=O)=O)C4=CC=C(C5=NC=CC=C5)C=C4] | – | – | 47.6 | 15 | 8 | – | –
[N-]=[N+]=NS(=O)(=O)c1ccc(CN(CCSc2ccccc2)Cc2ccc(S(=O)(=O)N=[N+]=[N-])cc2)cc1 [SZ9] | – | 13 | – | – | – | – | –
NS(=O)(=O)c1ccc(CN(CCSc2ccccc2)Cc2ccc(S(=O)(=O)NC(=O)Cn3c4ccccc4c4ccccc43)cc2)cc1 [SZ10TA15, O=C(NS(C1=CC=C(CN(CC2=CC=C(S(=O)(N)=O)C=C2)CCSC3=CC=CC=C3)C=C1)(=O)=O)CN4C(C=CC=C5)=C5C6=C4C=CC=C6] | – | – | 37.4 | 10 | 8 | – | –
NS(=O)(=O)c1ccc(CN(CCSc2ccccc2)Cc2ccc(S(=O)(=O)NC(=O)c3ccc(-c4ccccn4)cc3)cc2)cc1 [SZ10TA25, O=C(NS(C1=CC=C(CN(CCSC2=CC=CC=C2)CC3=CC=C(S(=O)(N)=O)C=C3)C=C1)(=O)=O)C4=CC=C(C5=NC=CC=C5)C=C4] | – | – | 93.6 | 12 | 5 | – | –
NS(=O)(=O)c1ccc(CN(CCSc2ccccc2)Cc2ccc(S(=O)(=O)NC(=O)CC3Sc4ccccc4NC3=O)cc2)cc1 (stereo not shown) [SZ10TA34, O=C(NS(C1=CC=C(CN(CCSC2=CC=CC=C2)CC3=CC=C(S(=O)(N)=O)C=C3)C=C1)(=O)=O)CC4SC5=CC=CC=C5NC4=O] | – | – | 64.1 | 7 | 6 | – | –
NS(=O)(=O)c1ccc(CN(CCSc2ccccc2)Cc2ccc(S(=O)(=O)NC(=O)c3ccc4oc(-c5ccccc5)cc4c3)cc2)cc1 [SZ10TA41, O=C(NS(C1=CC=C(CN(CCSC2=CC=CC=C2)CC3=CC=C(S(=O)(N)=O)C=C3)C=C1)(=O)=O)C4=CC(C=C(C5=CC=CC=C5)O6)=C6C=C4] | – | – | 12.4 | 20 | 40 | – | –
NS(=O)(=O)c1ccc(CN(CCSc2ccccc2)Cc2ccc(S(=O)(=O)NC(=O)c3cccc(NCCc4ccccc4)c3)cc2)cc1 [SZ10TA44, O=C(NS(C1=CC=C(CN(CCSC2=CC=CC=C2)CC3=CC=C(S(=O)(N)=O)C=C3)C=C1)(=O)=O)C4=CC(NCCC5=CC=CC=C5)=CC=C4] | – | – | 63.4 | 12 | 9 | – | –
CC(C)(C)c1ccc(-c2ccc(S(=O)(=O)NC(=O)c3ccccc3)cc2)cc1 [SZ11TA1] | non-hit | – | – | – | – | – | –
CC(C)(C)c1ccc(-c2ccc(S(=O)(=O)NC(=O)c3ccc4c(ccn4Cc4ccc(C(F)(F)F)cc4C(F)(F)F)c3)cc2)cc1 [SZ11TA30, O=C(NS(C1=CC=C(C2=CC=C(C(C)(C)C)C=C2)C=C1)(=O)=O)C3=CC(C=CN4CC5=CC=C(C(F)(F)F)C=C5C(F)(F)F)=C4C=C3] | – | – | 63.6 | 12 | 7 | – | –
Cn1cc(C(=O)C2CCCCC2)c2cc(C(=O)NS(=O)(=O)c3ccc(-c4ccc(C(C)(C)C)cc4)cc3)ccc21 [SZ11TA40, O=C(NS(C1=CC=C(C2=CC=C(C(C)(C)C)C=C2)C=C1)(=O)=O)C3=CC(C(C(C4CCCCC4)=O)=CN5C)=C5C=C3] | – | – | > 99 | 8 | 5.5 | 21.9 | –
CC1(C)CCN(c2ccc(C(=O)NS(=O)(=O)c3ccc(CNc4cccc([N+](=O)[O-])c4)cc3)cc2)CC1 [SZ12TA2, O=C(NS(C1=CC=C(CNC2=CC=CC([N+]([O-])=O)=C2)C=C1)(=O)=O)C(C=C3)=CC=C3N4CCC(C)(C)CC4] | – | – | 54.1 | 7 | 4 | – | –
Cn1cc(C(=O)C2CCCCC2)c2cc(C(=O)NS(=O)(=O)c3ccc(COc4ccc5c(=O)cc(-c6ccccc6)oc5c4)cc3)ccc21 [SZ14TA40, O=C(NS(C1=CC=C(COC2=CC=C(C(C=C(C3=CC=CC=C3)O4)=O)C4=C2)C=C1)(=O)=O)C5=CC=C6C(C(C(C7CCCCC7)=O)=CN6C)=C5] | – | – | 93.1 | 24 | 15 | – | –
O=C(NS(=O)(=O)c1ccc(CN(CCSc2ccccc2)Cc2c(F)cccc2Cl)cc1)c1cccc2ccccc12 [SZ15TA7, O=C(NS(C1=CC=C(CN(CCSC2=CC=CC=C2)CC3=C(F)C=CC=C3Cl)C=C1)(=O)=O)C4=C(C=CC=C5)C5=CC=C4] | – | – | 98.4 | 8 | 9 | – | 15.4
O=C(NS(=O)(=O)c1ccc(CN(CCSc2ccccc2)Cc2c(F)cccc2Cl)cc1)c1ccc(-c2ccc(F)cc2)cc1 [SZ15TA14, O=C(NS(C1=CC=C(CN(CCSC2=CC=CC=C2)CC3=C(F)C=CC=C3Cl)C=C1)(=O)=O)C4=CC=C(C5=CC=C(F)C=C5)C=C4] | – | – | 58.8 | 7 | 6 | – | –
O=C(Cn1c2ccccc2c2ccccc21)NS(=O)(=O)c1ccc(CN(CCSc2ccccc2)Cc2c(F)cccc2Cl)cc1 [SZ15TA15, O=C(NS(C1=CC=C(CN(CCSC2=CC=CC=C2)CC3=C(F)C=CC=C3Cl)C=C1)(=O)=O)CN4C(C=CC=C5)=C5C6=C4C=CC=C6] | – | – | 53.6 | 9 | 10 | – | –
COc1ccc(Cc2ccc(C(=O)NS(=O)(=O)c3ccc(CN(CCSc4ccccc4)Cc4c(F)cccc4Cl)cc3)cc2)c(OC)c1OC [SZ15TA24, O=C(NS(C1=CC=C(CN(CCSC2=CC=CC=C2)CC3=C(F)C=CC=C3Cl)C=C1)(=O)=O)C4=CC=C(CC5=CC=C(OC)C(OC)=C5OC)C=C4] | – | – | 70.8 | 20 | 15 | – | –
O=C(NS(=O)(=O)c1ccc(-c2ccc(C(F)(F)F)cc2)cc1)c1cccc(NCCc2ccccc2)c1 [SZ16TA44, O=C(NS(C1=CC=C(C2=CC=C(C(F)(F)F)C=C2)C=C1)(=O)=O)C3=CC(NCCC4=CC=CC=C4)=CC=C3] | – | – | 98.1 | 12 | 4 | 31.5 | –
COc1cccc(CN(CCSc2ccccc2)Cc2ccc(S(=O)(=O)NC(=O)c3ccc(OC(F)(F)F)cc3)cc2)c1 [SZ17TA8, O=C(NS(C1=CC=C(CN(CCSC2=CC=CC=C2)CC3=CC(OC)=CC=C3)C=C1)(=O)=O)C4=CC=C(OC(F)(F)F)C=C4] | – | – | > 99 | 8 | 4 | 8.4 | –
COc1cccc(CN(CCSc2ccccc2)Cc2ccc(S(=O)(=O)NC(=O)Cn3c4ccccc4c4ccccc43)cc2)c1 [SZ17TA15, O=C(NS(C1=CC=C(CN(CC2=CC(OC)=CC=C2)CCSC3=CC=CC=C3)C=C1)(=O)=O)CN4C(C=CC=C5)=C5C6=C4C=CC=C6] | – | – | 60.6 | 13 | 4 | – | –
Cc1cc(OCCCc2c(C(=O)NS(=O)(=O)c3ccc(C(=O)O)o3)[nH]c3c(-c4c(C)nn(C)c4C)c(Cl)ccc23)cc(C)c1Cl [compound 60, O=C(NS(C1=CC=C(C(O)=O)O1)(=O)=O)C2=C(CCCOC3=CC(C)=C(Cl)C(C)=C3)C4=CC=C(Cl)C(C5=C(C)N(C)N=C5C)=C4N2, reference compound] | – | – | > 99 | – | – | – | –
